Measured values taken from patent US20110105515A1, “TARGETING THE ONCOPROTEIN NUCLEOPHOSMIN” (President and Fellows of Harvard College, priority 2007, published 2011).

Columns and labels:
CCRF-CEM = CCRF-CEM (Leukemia), 48 hours, SRB
HL-60(TB) = HL-60(TB) (Leukemia), 48 hours, SRB
MOLT-4 = MOLT-4 (Leukemia), 48 hours, SRB
RPMI-8226 = RPMI-8226 (Leukemia), 48 hours, SRB
SR = SR (Leukemia), 48 hours, SRB
A549/ATCC = A549/ATCC (Non-Small Cell Lung Cancer), 48 hours, SRB
EKVX = EKVX (Non-Small Cell Lung Cancer), 48 hours, SRB
NCI-H226 = NCI-H226 (Non-Small Cell Lung Cancer), 48 hours, SRB
NCI-H23 = NCI-H23 (Non-Small Cell Lung Cancer), 48 hours, SRB
HCT-15 = HCT-15 (Colon Cancer), 48 hours, SRB
HT29 = HT29 (Colon Cancer), 48 hours, SRB
SW-620 = SW-620 (Colon Cancer), 48 hours, SRB
SF-268 = SF-268 (CNS Cancer), 48 hours, SRB
SF-295 = SF-295 (CNS Cancer), 48 hours, SRB
SF-539 = SF-539 (CNS Cancer), 48 hours, SRB
SK-MEL-2 = SK-MEL-2 (Melanoma), 48 hours, SRB
UACC-257 = UACC-257 (Melanoma), 48 hours, SRB
OVCAR-3 = OVCAR-3 (Ovarian Cancer), 48 hours, SRB
OVCAR-8 = OVCAR-8 (Ovarian Cancer), 48 hours, SRB
786-0 = 786-0 (Renal Cancer), 48 hours, SRB
ACHN = ACHN (Renal Cancer), 48 hours, SRB
RXF 393 = RXF 393 (Renal Cancer), 48 hours, SRB
SN12C = SN12C (Renal Cancer), 48 hours, SRB
TK-10 = TK-10 (Renal Cancer), 48 hours, SRB
PC-3 = PC-3 (Prostate Cancer), 48 hours, SRB
DU-145 = DU-145 (Prostate Cancer), 48 hours, SRB
NCI/ADR-RES = NCI/ADR-RES (Breast Cancer), 48 hours, SRB
HS578T = HS578T (Breast Cancer), 48 hours, SRB
MDA-MB-435 = MDA-MB-435 (Breast Cancer), 48 hours, SRB
T-47D = T-47D (Breast Cancer), 48 hours, SRB
MDA-MB-468 = MDA-MB-468 (Breast Cancer), 48 hours, SRB

For [2H]On1c2c(c3ccc4c(c31)C=CC(C)(C)O4)C(OC([2H])([2H])[2H])[C@@]13NC(=O)C4(CCCN4C1=O)CC3C2(C)C (some centres unmarked) [Deuterated Methanol Adduct], the TGI (CCRF-CEM) was 704 nM, the TGI (HL-60(TB)) was 1450 nM and the TGI (MOLT-4) was 1380 nM. It also gave a TGI (RPMI-8226) of 298 nM, a TGI (SR) of 1250 nM and a TGI (A549/ATCC) of 2990 nM. For the same compound, the TGI (EKVX) was 1970 nM, the TGI (NCI-H226) was 1700 nM and the TGI (NCI-H23) was 2430 nM. For the same compound, the TGI (HCT-15) was 1770 nM, the TGI (HT29) was 3680 nM and the TGI (SW-620) was 1540 nM. For the same compound, the TGI (SF-268) was 3010 nM, the TGI (SF-295) was 2730 nM and the TGI (SF-539) was 1460 nM. It also gave a TGI (SK-MEL-2) of 2280 nM, a TGI (UACC-257) of 1890 nM and a TGI (OVCAR-3) of 1810 nM. For the same compound, the TGI (OVCAR-8) was 2170 nM, the TGI (786-0) was 2460 nM and the TGI (ACHN) was 2530 nM. The TGI (RXF 393) was 625 nM, the TGI (SN12C) was 2320 nM and the TGI (TK-10) was 2350 nM. It also gave a TGI (PC-3) of 2020 nM, a TGI (DU-145) of 3120 nM and a TGI (NCI/ADR-RES) of 9950 nM. For the same compound, the TGI (HS578T) was 2170 nM, the TGI (MDA-MB-435) was 1770 nM and the TGI (T-47D) was 1380 nM. It also gave a TGI (MDA-MB-468) of 1780 nM.
Compound Cc1cc(C)cc(-c2ccc3c(c2)[N+]([O-])=C2C3=C[C@@]34NC(=O)C5(CCCN5C3=O)CC4C2(C)C)c1 (some centres unmarked) [Biphenyl Analogue] has a TGI (CCRF-CEM) of 421 nM, a TGI (HL-60(TB)) of 655 nM and a TGI (MOLT-4) of 604 nM. For the same compound, the TGI (RPMI-8226) was 48.6 nM, the TGI (SR) was 407 nM and the TGI (A549/ATCC) was 834 nM. The TGI (EKVX) was 1110 nM, the TGI (NCI-H226) was 707 nM and the TGI (NCI-H23) was 840 nM. The TGI (HCT-15) was 322 nM, the TGI (HT29) was greater than 100000 nM and the TGI (SW-620) was 349 nM. The TGI (SF-268) was 767 nM, the TGI (SF-295) was 1540 nM and the TGI (SF-539) was 445 nM. It also gave a TGI (UACC-257) of 1360 nM, a TGI (OVCAR-3) of 395 nM and a TGI (OVCAR-8) of 1030 nM. For the same compound, the TGI (786-0) was 398 nM, the TGI (ACHN) was 618 nM and the TGI (SN12C) was 614 nM. It also gave a TGI (TK-10) of 955 nM, a TGI (DU-145) of 813 nM and a TGI (NCI/ADR-RES) of 2270 nM. It also gave a TGI (HS578T) of 18900 nM, a TGI (MDA-MB-435) of 440 nM and a TGI (T-47D) of 330 nM. It also gave a TGI (MDA-MB-468) of 590 nM.
With CN(C)c1cccc2c(S(=O)(=O)NCCCCCCCCCCOc3ccc4c(c3)[N+]([O-])=C3C4=C[C@@]45NC(=O)C6(CCCN6C4=O)CC5C3(C)C)cccc12 (some centres unmarked) [Dansyl Analogue] the GI50 (CCRF-CEM) was 246 nM, the TGI (CCRF-CEM) was greater than 100000 nM and the CC50 (CCRF-CEM; read-out: LC50) was greater than 100000 nM. The GI50 (HL-60(TB)) was 211 nM, the TGI (HL-60(TB)) was 1160 nM and the CC50 (HL-60(TB); read-out: LC50) was greater than 100000 nM. The GI50 (MOLT-4) was 276 nM, the CC50 (MOLT-4; read-out: LC50) was greater than 100000 nM and the GI50 (RPMI-8226) was 282 nM. The TGI (RPMI-8226) was greater than 100000 nM, the CC50 (RPMI-8226; read-out: LC50) was greater than 100000 nM and the GI50 (SR) was 371 nM. The TGI (SR) was 1940 nM, the CC50 (SR; read-out: LC50) was 23700 nM and the GI50 (A549/ATCC) was 2170 nM. For the same compound, the TGI (A549/ATCC) was 5370 nM, the CC50 (A549/ATCC; read-out: LC50) was 18100 nM and the GI50 (EKVX) was 540 nM. It also gave a TGI (EKVX) of 3630 nM, a CC50 (EKVX; read-out: LC50) of 37000 nM and a GI50 (NCI-H226) of 1030 nM. It also gave a TGI (NCI-H226) of 3030 nM, a CC50 (NCI-H226; read-out: LC50) of 8930 nM and a GI50 (NCI-H23) of 581 nM. The TGI (NCI-H23) was 2480 nM, the CC50 (NCI-H23; read-out: LC50) was 9050 nM and the GI50 (HCT-15) was 484 nM. The TGI (HCT-15) was 1750 nM, the CC50 (HCT-15; read-out: LC50) was 4180 nM and the GI50 (HT29) was 454 nM. For the same compound, the TGI (HT29) was 1510 nM, the CC50 (HT29; read-out: LC50) was 3960 nM and the GI50 (SW-620) was 266 nM. The GI50 (SF-268) was 282 nM, the TGI (SF-268) was 853 nM and the CC50 (SF-268; read-out: LC50) was 3690 nM. The GI50 (SF-295) was 1730 nM, the TGI (SF-295) was 4630 nM and the CC50 (SF-295; read-out: LC50) was 49400 nM. The GI50 (SF-539) was 215 nM, the TGI (SF-539) was 545 nM and the CC50 (SF-539; read-out: LC50) was 1890 nM. The GI50 (SK-MEL-2) was 1070 nM, the TGI (SK-MEL-2) was 3230 nM and the CC50 (SK-MEL-2; read-out: LC50) was 9820 nM. For the same compound, the GI50 (UACC-257) was 1020 nM, the TGI (UACC-257) was 2810 nM and the CC50 (UACC-257; read-out: LC50) was 7740 nM. For the same compound, the GI50 (OVCAR-3) was 201 nM, the TGI (OVCAR-3) was 413 nM and the CC50 (OVCAR-3; read-out: LC50) was 849 nM. The GI50 (OVCAR-8) was 759 nM, the TGI (OVCAR-8) was 11000 nM and the CC50 (OVCAR-8; read-out: LC50) was greater than 100000 nM. The GI50 (786-0) was 325 nM, the TGI (786-0) was 1070 nM and the CC50 (786-0; read-out: LC50) was 5210 nM. The GI50 (ACHN) was 736 nM, the TGI (ACHN) was 2700 nM and the CC50 (ACHN; read-out: LC50) was 8560 nM. It also gave a GI50 (RXF 393) of 611 nM, a TGI (RXF 393) of 5920 nM and a CC50 (RXF 393; read-out: LC50) of 44400 nM. It also gave a GI50 (SN12C) of 401 nM, a TGI (SN12C) of 6810 nM and a CC50 (SN12C; read-out: LC50) of 31700 nM. It also gave a GI50 (TK-10) of 716 nM, a TGI (TK-10) of 2810 nM and a CC50 (TK-10; read-out: LC50) of 9660 nM. The GI50 (PC-3) was 334 nM, the TGI (PC-3) was 1820 nM and the CC50 (PC-3; read-out: LC50) was 41700 nM. For the same compound, the GI50 (DU-145) was 271 nM, the TGI (DU-145) was 706 nM and the CC50 (DU-145; read-out: LC50) was 2450 nM. It also gave a GI50 (NCI/ADR-RES) of 28200 nM, a TGI (NCI/ADR-RES) greater than 100000 nM and a CC50 (NCI/ADR-RES; read-out: LC50) greater than 100000 nM. The GI50 (HS578T) was 355 nM, the TGI (HS578T) was 36900 nM and the CC50 (HS578T; read-out: LC50) was greater than 100000 nM. The GI50 (MDA-MB-435) was 382 nM, the TGI (MDA-MB-435) was 1920 nM and the CC50 (MDA-MB-435; read-out: LC50) was 23100 nM. It also gave a GI50 (T-47D) of 152 nM, a TGI (T-47D) of 572 nM and a CC50 (T-47D; read-out: LC50) of 3140 nM. The GI50 (MDA-MB-468) was 202 nM, the TGI (MDA-MB-468) was 436 nM and the CC50 (MDA-MB-468; read-out: LC50) was 941 nM.
